Bridge positions count the residues as written; N and C are the ends. Peptide text beside a SMILES is read from it.
What was measured:
[1] = test system: C. albicans 53264 biofilms; assay: Biofilm XTT metabolic assay; assay type: cell-based; settings: pre-adhesion, 2 h adherent and 24 h mature biofilms
Experimental: The antifungal activities of RTD-1, caspofungin and fluconazole were evaluated against biofilms of C. albicans SC5314 and 53264 essentially as described by Pierce et al.[67]. Briefly, biofilms established for 0 h (preadhesion), 2 h (adherent), or 24 h (mature) were developed by adding 1 × 10^5 yeast cells in 50 or 100 µl of RPMI-1640 to wells of flat-bottom 96-well microtiter plates (Costar, Corning, NY). Fifty or 100 µl aliquots of serial 2-fold dilutions of peptide or antifungal drugs were added to wells in triplicate and incubated for 24 h or 48 h prior to analysis of biofilm metabolic activities. Concentrations of reagents used were as follows: RTD-1 - 0.09 – 100 µg/ml (0.05–48 µM), Fluco – 1–250 µg/ml (3.3–816.3 µM); Caspo- 0.003–8 µg/ml ([…]–7.3 µM). Analysis of the effect of each agent on Candida biofilms was performed using an XTT colorimetric assay. One hundred µl of 1 µM XTT/menadione added to each biofilm well, plates were incubated in the dark for 3 h at 37 °C, and 80 µl of supernatant was transferred to a new 96-well flat-bottom microtiter plate (Greiner Bio-one, Monroe, NC). Absorbance was measured at 490 nm on a SpectraMax® i3x (Molecular Devices). Readings were plotted as average of triplicates after subtracting the corresponding values for negative controls (XTT/menadione only).

[2] = RTD-1 tolerability/toxicity in naive mice; assay type: in vivo, BALB/c mice
Experimental: RTD-1 tolerability/toxicity was evaluated by i.p. dosing of naÏve BALB/c mice with RTD-1 at 5 mg/kg RTD-1 daily for 7 days, 20 mg/kg every other day for 10 days, and once at 50 mg/kg.

[3] = test system: C. albicans SC5314, 43001 and 53264; assay: MIC/MFC, summary statements over the three strains; assay type: cell-based
Experimental: C. albicans strains were tested against RTD-1, fluconazole, and caspofungin in microdilution broth in accordance with Clinical and Laboratory Standards Institute (CLSI) document M27-A2 with the exception that 25 mM MOPS was used in place of 165 mM MOPS, as described previously. Overnight cultures were harvested by centrifugation, washed twice with Ca^2+ and Mg^2+-free PBS, pH 7.2, and suspended in test medium (RPMI 1640 medium, 25 mM MOPS, 2 mM L-glutamine) at 10^4 CFU/ml[62]. Incubations were conducted in flat bottom, 96-well microtiter plates (Greiner bio-one, Monroe, NC) containing 0.2 ml test medium per well. Duplicate 0.1 ml aliquots of serial two-fold dilutions of peptides and antifungal drugs were dispensed into wells, each of which was inoculated with 0.1 ml of fungal cell suspension containing 1 × 10^3 CFU. Plates were incubated at 30 °C for 48 hours after which A600 was determined using a SpectraMax M5e plate reader.
Minimal fungicidal concentration (MFC) was determined by plating, on YPD plates, 10 µl from wells in MIC assay without cell growth and the first well with measurable turbidity as described[63]–[66] and corresponding aliquots from the no-agent controls. Under MIC incubation conditions, no filamentation occurred allowing for accurate CFU counts after plating on YPD plates which were incubated for 24 h at 30 °C. […]

Compound: CC[C@H](C)[C@@H]1NC(=O)[C@@H]2CSSC[C@H](NC(=O)[C@H](CCCNC(=N)N)NC(=O)[C@@H]3CSSC[C@H](NC1=O)C(=O)N[C@@H]([C@@H](C)O)C(=O)N[C@@H](CCCNC(=N)N)C(=O)NCC(=O)N[C@@H](Cc1ccccc1)C(=O)N3)C(=O)N[C@@H](CC(C)C)C(=O)N[C@H]1CSSC[C@H](NC(=O)[C@H](C(C)C)NC(=O)CNC(=O)[C@H](CCCNC(=N)N)NC(=O)[C@H](CCCNC(=N)N)NC1=O)C(=O)N[C@@H](CCCNC(=N)N)C(=O)N2 [RTD-1, Rhesus theta (θ) defensin-1] (cyclo(GFCRCLCRRGVCRCICTR); disulfide 3-16, 5-14, 7-12 (inferred); ring closure inferred)
- biofilm inhibition (XTT) [1]: inhibited biofilm formation
- tolerability ([2]; i.p. 5 mg/kg daily for 7 days, 20 mg/kg every other day for 10 days, once 50 mg/kg, observation at least 14 days): tolerated RTD-1 dosing at all levels
- toxicity ([2]; summary statement (Results)): non-toxic
- MFCs as multiple of the MICs ([3]; RPMI): 1–2 × the MICs
- antifungal activity against blastospores in 50% mouse serum ([3]; peptide concentrations up to 100 µg/ml): inactive

Reference: PMC6858451, “Rhesus Theta Defensin 1 Promotes Long Term Survival in Systemic Candidiasis by Host Directed Mechanisms” (Scientific Reports, 2019)
